The CheMixHub viscosity set

Assay: xn = mol fraction of the nth substance listed

CC(C)=O + CCCO
viscosity [mPa·s]
Details | 293.15 K | 298.15 K | 303.15 K | 308.15 K | 313.15 K | 318.15 K | 323.15 K
100 kPa, x1 = 0.0998 | 1.594 | 1.433 | 1.292 | 1.169 | 1.061 | 0.9672 | 0.8879
100 kPa, x1 = 0.1998 | 1.18 | 1.075 | 0.9822 | 0.8994 | 0.825 | 0.7583 | 0.6972
100 kPa, x1 = 0.3 | 0.9113 | 0.8407 | 0.7774 | 0.7203 | 0.6684 | 0.6206 | 0.576
100 kPa, x1 = 0.4001 | 0.735 | 0.6844 | 0.6379 | 0.595 | 0.5538 | 0.5147 | 0.4769
100 kPa, x1 = 0.4999 | 0.6175 | 0.5801 | 0.5456 | 0.513 | 0.4815 | 0.4495 | 0.4195
100 kPa, x1 = 0.6 | 0.5137 | 0.4875 | 0.4629 | 0.4389 | 0.4158 | 0.392 | 0.3661
100 kPa, x1 = 0.6998 | 0.4493 | 0.429 | 0.4094 | 0.3911 | 0.3733 | 0.3543 | 0.3317
100 kPa, x1 = 0.8002 | 0.407 | 0.391 | 0.3751 | 0.3599 | 0.3448 | 0.3286 | 0.3156
100 kPa, x1 = 0.9 | 0.3728 | 0.3531 | 0.34 | – | 0.301 | 0.2875 | 0.279
100 kPa, x1 = 0.9001 | – | – | – | 0.3221 | – | – | –
101 kPa, x1 = 0.1032 | – | 1.433 | – | – | – | – | –
101 kPa, x1 = 0.2056 | – | 0.9891 | – | – | – | – | –
101 kPa, x1 = 0.3073 | – | 0.7819 | – | – | – | – | –
101 kPa, x1 = 0.4083 | – | 0.6403 | – | – | – | – | –
101 kPa, x1 = 0.5086 | – | 0.5381 | – | – | – | – | –
101 kPa, x1 = 0.6082 | – | 0.4652 | – | – | – | – | –
101 kPa, x1 = 0.7072 | – | 0.4139 | – | – | – | – | –
101 kPa, x1 = 0.8055 | – | 0.3742 | – | – | – | – | –
101 kPa, x1 = 0.903 | – | 0.3453 | – | – | – | – | –

COc1ccccc1 + CCCO
viscosity [mPa·s], 101 kPa
Details | x1 = 0.1207 | x1 = 0.236 | x1 = 0.3462 | x1 = 0.4516 | x1 = 0.5526 | x1 = 0.6495 | x1 = 0.7424 | x1 = 0.8317 | x1 = 0.9175
303 K | 1.448 | 1.219 | 1.138 | 1.075 | 0.9286 | 0.8908 | 0.8219 | 0.8308 | 0.8695
313 K | 1.176 | 1.046 | 0.9616 | 0.8924 | 0.7921 | 0.7847 | 0.7639 | 0.7523 | 0.7392
323 K | 0.9186 | 0.8788 | 0.759 | 0.7338 | 0.6514 | 0.6115 | 0.6084 | 0.5967 | 0.598

Cc1ccccc1 + CCCO
Details | viscosity [mPa·s]
293.15 K, 100 kPa, x2 = 0.125 | 0.611
293.15 K, 100 kPa, x2 = 0.25 | 0.636
293.15 K, 100 kPa, x2 = 0.375 | 0.747
293.15 K, 100 kPa, x2 = 0.5 | 0.875
293.15 K, 100 kPa, x2 = 0.625 | 1.055
293.15 K, 100 kPa, x2 = 0.75 | 1.312
293.15 K, 100 kPa, x2 = 0.875 | 1.685
298.15 K, 100 kPa, x2 = 0.0553 | 0.5596
298.15 K, 100 kPa, x2 = 0.1089 | 0.572
298.15 K, 100 kPa, x2 = 0.1987 | 0.5972
298.15 K, 100 kPa, x2 = 0.319 | 0.6607
298.15 K, 100 kPa, x2 = 0.4308 | 0.7379
298.15 K, 100 kPa, x2 = 0.5349 | 0.7998
298.15 K, 100 kPa, x2 = 0.632 | 0.9538
298.15 K, 100 kPa, x2 = 0.723 | 1.116
298.15 K, 100 kPa, x2 = 0.8083 | 1.265
298.15 K, 100 kPa, x2 = 0.8884 | 1.563
298.15 K, 100 kPa, x2 = 0.9639 | 1.825
298.15 K, 101 kPa, x2 = 0.1 | 0.558
298.15 K, 101 kPa, x2 = 0.2 | 0.588
298.15 K, 101 kPa, x2 = 0.3 | 0.6389
298.15 K, 101 kPa, x2 = 0.4 | 0.7091
298.15 K, 101 kPa, x2 = 0.5 | 0.801
298.15 K, 101 kPa, x2 = 0.6 | 0.9211
298.15 K, 101 kPa, x2 = 0.7 | 1.08
298.15 K, 101 kPa, x2 = 0.8 | 1.292
298.15 K, 101 kPa, x2 = 0.9 | 1.576
303 K, 101 kPa, x1 = 0.1006 | 1.367
303 K, 101 kPa, x1 = 0.2012 | 1.171
303 K, 101 kPa, x1 = 0.3009 | 1.025
303 K, 101 kPa, x1 = 0.3981 | 0.902
303 K, 101 kPa, x1 = 0.5016 | 0.785
303 K, 101 kPa, x1 = 0.6052 | 0.699
303 K, 101 kPa, x1 = 0.7001 | 0.645
303 K, 101 kPa, x1 = 0.8095 | 0.598
303 K, 101 kPa, x1 = 0.9011 | 0.546
303.15 K, 101.33 kPa, x1 = 0.1141 | 1.376
303.15 K, 101.33 kPa, x1 = 0.1926 | 1.182
303.15 K, 101.33 kPa, x1 = 0.2912 | 0.982
303.15 K, 101.33 kPa, x1 = 0.3778 | 0.866
303.15 K, 101.33 kPa, x1 = 0.4778 | 0.761
303.15 K, 101.33 kPa, x1 = 0.6242 | 0.651
303.15 K, 101.33 kPa, x1 = 0.7421 | 0.587
303.15 K, 101.33 kPa, x1 = 0.8737 | 0.541
303.15 K, 101.33 kPa, x1 = 0.9517 | 0.527
308.15 K, 100 kPa, x2 = 0.0553 | 0.5017
308.15 K, 100 kPa, x2 = 0.1089 | 0.5107
308.15 K, 100 kPa, x2 = 0.1987 | 0.5293
308.15 K, 100 kPa, x2 = 0.319 | 0.572
308.15 K, 100 kPa, x2 = 0.4308 | 0.6289
308.15 K, 100 kPa, x2 = 0.5349 | 0.6996
308.15 K, 100 kPa, x2 = 0.632 | 0.7945
308.15 K, 100 kPa, x2 = 0.723 | 0.8952
308.15 K, 100 kPa, x2 = 0.8083 | 1.019
308.15 K, 100 kPa, x2 = 0.8884 | 1.24
308.15 K, 100 kPa, x2 = 0.9639 | 1.422
308.15 K, 101.33 kPa, x1 = 0.1141 | 1.251
308.15 K, 101.33 kPa, x1 = 0.1926 | 1.078
308.15 K, 101.33 kPa, x1 = 0.2912 | 0.899
308.15 K, 101.33 kPa, x1 = 0.3778 | 0.795
308.15 K, 101.33 kPa, x1 = 0.4778 | 0.703
308.15 K, 101.33 kPa, x1 = 0.6242 | 0.608
308.15 K, 101.33 kPa, x1 = 0.7421 | 0.553
308.15 K, 101.33 kPa, x1 = 0.8737 | 0.514
308.15 K, 101.33 kPa, x1 = 0.9517 | 0.499
313.15 K, 100 kPa, x2 = 0.125 | 0.479
313.15 K, 100 kPa, x2 = 0.25 | 0.495
313.15 K, 100 kPa, x2 = 0.375 | 0.554
313.15 K, 100 kPa, x2 = 0.5 | 0.625
313.15 K, 100 kPa, x2 = 0.625 | 0.728
313.15 K, 100 kPa, x2 = 0.75 | 0.876
313.15 K, 100 kPa, x2 = 0.875 | 1.087
313.15 K, 101.33 kPa, x1 = 0.1141 | 1.15
313.15 K, 101.33 kPa, x1 = 0.1926 | 0.99
313.15 K, 101.33 kPa, x1 = 0.2912 | 0.83
313.15 K, 101.33 kPa, x1 = 0.3778 | 0.736
313.15 K, 101.33 kPa, x1 = 0.4778 | 0.655
313.15 K, 101.33 kPa, x1 = 0.6242 | 0.57
313.15 K, 101.33 kPa, x1 = 0.7421 | 0.521
313.15 K, 101.33 kPa, x1 = 0.8737 | 0.491
313.15 K, 101.33 kPa, x1 = 0.9517 | 0.476
